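These data come from cells grown in 96-well plates and exposed to compound for 48 hours at five concentrations. At the GI50, growth is halved. TGI: total growth inhibition.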
Columns and labels:
Assay in all cases: growth of human tumour cells (NCI), 48 h
[1] = tested on: OVCAR-8 ovarian
[2] = tested on: LOX IMVI melanoma
[3] = tested on: MDA-N
[4] = tested on: IGROV1 ovarian
[5] = tested on: 786-0 renal
[6] = tested on: OVCAR-3 ovarian
[7] = tested on: OVCAR-5 ovarian
[8] = tested on: SNB-19 CNS
[9] = tested on: CCRF-CEM leukemia
[10] = tested on: UACC-62 melanoma
[11] = tested on: RPMI-8226 leukemia
[12] = tested on: T-47D breast

Structure (SMILES) | TGI [1] [µM] | TGI [2] [µM] | TGI [3] [µM] | TGI [4] [µM] | TGI [5] [µM] | TGI [6] [µM] | TGI [7] [µM] | TGI [8] [µM] | TGI [9] [µM] | TGI [10] [µM] | TGI [11] [µM] | TGI [12] [µM] | GI50 [6] [µM] | GI50 [7] [µM] | GI50 [9] [µM] | GI50 [11] [µM]
Cc1nc2nnc(CCCCCCCCc3nnc4nc(C)[nH]n34)n2[nH]1 | > 100 | > 100 | > 100 | > 100 | > 100 | > 100 | > 100 | > 100 | > 100 |  |  |  |  |  |  | 
COc1ccc2nc(-c3ccc(N)cc3)sc2c1 | > 100 |  |  | > 100 | > 100 | > 100 | > 100 | > 100 | > 100 | > 100 |  |  |  |  |  | 
COC(OC)c1cccc2c1C(=O)CCC1(CC2)OCCCCO1 | > 100 | > 100 |  | > 100 | > 100 | > 100 | > 100 | > 100 | > 100 | > 100 | > 100 |  |  |  |  | 
O=[N+]([O-])c1ccc(CSC2=C(c3ccc(Cl)cc3)S/C(=C3\SC(SCc4ccc([N+](=O)[O-])cc4)=C(c4ccc(Cl)cc4)S3)S2)cc1 | > 100 | > 100 | > 100 | > 100 | > 100 | > 100 | > 100 | > 100 | > 100 | > 100 |  | > 100 |  |  |  | 
Cc1cc2c3ccccc3n3c2c2c1OC1(C)CCC(C2C1)C3(C)C (stereo not drawn) | > 25 | > 25 |  | > 25 | > 25 | > 25 | > 25 | > 25 | > 25 | > 25 | > 25 |  |  |  |  | 
C/C(=C\COP(=O)(O)OP(=O)(O)O)CC/C=C(\C)CNc1c(F)c(F)c(F)c(F)c1F | > 100 | > 100 |  | > 100 | > 100 | > 100 | > 100 | > 100 | 1.26 | > 100 |  | > 100 |  |  |  | 
C[N+]1(CC[N+]2(C)CCCC2c2cccnc2)CCCC1c1cccnc1 (stereo not drawn) | > 100 | > 100 | > 100 | > 100 | 90.7 | > 100 | > 100 | > 100 |  | > 100 | > 100 | > 100 |  |  |  | 
Cc1ccc2c(c1)CC1(Cc3cc(C)ccc3C1=O)C2=O | > 100 | > 100 | > 100 | > 100 | > 100 | > 100 | > 100 | > 100 | > 100 |  | > 100 | > 100 |  |  |  | 
Cc1cccc(NC(=S)NNC(=O)c2cc(-c3ccccc3)nc3ccccc23)c1 | > 100 |  | > 100 | > 100 | 85.1 | 66.5 | > 100 | > 100 | 35.4 | 99.7 | 83.6 | > 100 |  |  |  | 
CN(C)CCCn1c(-c2ccc(Br)cc2)csc1=Nc1ccccc1 | 32.1 |  | > 100 |  |  | 23.3 | 36.3 | 31.6 | > 100 | 29.6 | 44.4 |  |  |  |  | 
CCOC(=O)c1c(NS(=O)(=O)c2ccccc2)sc2c1CCCC2 | > 100 |  | > 100 | > 100 | > 100 | 82.3 | > 100 | > 100 | > 100 | > 100 | > 100 | > 100 |  |  |  | 
C=CC[PH+](c1ccccc1)c1ccccc1.C=CC[PH+](c1ccccc1)c1ccccc1.[Pt+2].[S-]c1nc2ccccc2[nH]1.[S-]c1nc2ccccc2[nH]1 |  |  |  |  |  | 5.16 | 5.42 |  | > 100 |  | 3.22 |  | 1.9 | 2.14 | 1.9 | 0.401
O=C(OC[C@H]1C[C@H]2C(=O)OCCC[C@H]2O1)c1ccccc1 | > 100 |  | > 100 | > 100 | > 100 | > 100 | > 100 | > 100 | > 100 | > 100 | > 100 | > 100 |  |  |  | 
COC(=O)[C@@H]1CN(C(=O)Cc2ccccc2)C(=O)N1 | > 100 | > 100 |  | > 100 | > 100 | > 100 | > 100 | > 100 | > 100 | > 100 | > 100 | > 100 |  |  |  | 
Cc1cc2nc3c(N)nn(CCCN(C)C)c3nc2cc1C | > 100 |  |  |  | > 100 | > 100 | > 100 | > 100 |  | > 100 | > 100 | > 100 |  |  |  | 
CCCOC(=O)CCC(NC(=O)c1ccc(Nc2nc3ccccc3nc2-c2cccs2)cc1)C(=O)OCCC (stereo not drawn) | > 100 | > 100 |  | > 100 |  | > 100 | > 100 | > 100 | > 100 | > 100 | > 100 |  |  |  |  | 
Cc1c(CCCl)c(Cl)n2c(nc3ccccc32)c1C#N | 2.38 | 0.878 |  | 3.36 |  | 2.82 | 4.1 | 5.88 | 3.36 | 2.51 | 0.385 |  |  |  |  | 
O=C(Cn1c(=O)oc2ccccc21)N(c1ccccc1)c1ccccc1 | > 100 | > 100 | > 100 | > 100 | > 100 | > 100 | > 100 | > 100 | > 100 | > 100 | > 100 |  |  |  |  | 
CN(CCNC(=O)c1nn(C)c2c1Cc1ccccc1-2)CCNC(=O)c1nn(C)c2c1Cc1ccccc1-2 | 42.2 | 34.8 | 29.4 | 27.5 | 27.7 | 29.8 | 89 | 31.8 |  | 28.7 |  | 91.5 |  |  |  | 
COC(=O)c1sc2c(c1C(=O)OC)C(=Nc1ccc(OC)cc1)SC2=Nc1ccc(OC)cc1 | 2.32 | 0.449 | 2.52 | 2.24 | 1.33 | 1.32 | 3.55 | 2.88 | 0.289 | 2.84 |  |  |  |  |  | 
Clc1ccc(Cc2nc3cc(Cl)c(Cl)cc3n2CC2CCCN3CCCCC23)cc1 (stereo not drawn) | 26.1 | 19.4 | 24.2 | 21 | 23.5 | 28.5 | 26 | 27.1 |  | 21.2 | > 100 | 64.6 |  |  |  | 

From PubChem BioAssay (NCI)
